The test system of the assay is CEM cells HIV-1 protection, formazan growth assay. In words: NCI AIDS Antiviral Assay. The note with it: for IC50: measured here: growth of uninfected CEM cells. Here is the method:
The ability of compounds to protect human CEM cells from HIV-1 infection is measured as a screen for new compounds capable of inhibiting the HIV virus. Five concentrations of drug were tested on uninfected and infected cells and cell growth was measured using a soluble formazan assay. […] Compounds that provided at least 50% protection were retested. Compounds that provided at least 50% protection on retest were listed as moderately active. Compounds that reproducibly provided 100% protection were listed as confirmed active. […] Note that the inability to provide protection could be due to toxicity.

Structures are written as SMILES. Activity calls are given as the source filed them.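 Rule for the calls: active = compounds giving half or more protection of infected cells from virus-caused growth loss, again on retest; inactive = the rest.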

In the case of `CC12CCC(C(Nc3cc(C(F)(F)F)cc(C(F)(F)F)c3)C1=O)C2(C)C` (centres undefined), the EC50 is greater than 200 µM and the IC50 was greater than 200 µM. Turning to `NCCCCN(CCCN)C(=O)OCc1ccccc1`, the EC50 is greater than 200 µM and the IC50 is greater than 200 µM.

For `O=C(C[n+]1ccncc1)c1ccc2c(c1)CCCC2`, the EC50 is 0.0631 µM and the IC50 was greater than 200 µM.

On to `Cc1cccc(-n2cc(C#N)c3c(C)cc(C)nc32)c1`, for which the EC50 was greater than 100 µM and the IC50 was greater than 100 µM. `CCOC(=O)/C(=C\c1ccoc1)P(=O)(OCC)OCC`: the EC50 is greater than 832 µM and the IC50 came out at 30.9 µM. Take `O=C(NO)C(=O)Nc1cc(Cl)ccc1Cl`: the EC50 is greater than 145 µM and the IC50 stood at 66.1 µM. In the case of `Cc1ccc(Nc2nc3[nH]ccc3c(=O)[nH]2)cc1`, the EC50 was greater than 200 µM and the IC50 was greater than 200 µM. For `O=C(c1c(O)cc(O)cc1O)c1c(-c2ccc(O)cc2)oc2cc(O)c3c(c12)O[C@H](c1ccc(O)cc1)[C@@H](O)C3`, the EC50 was 16.6 µM and the IC50 turned out to be 138 µM.

For the compound `CCOP(=O)(OCC)C(=C1C=C(C(C)(C)C)C(=O)C(C(C)(C)C)=C1)P(=O)(OCC)OCC`, the EC50 is greater than 200 µM and the IC50 amounted to 0.933 µM. For `O=C1C(c2ccccc2)=C(c2ccccc2)C(c2ccccc2)/C1=C1\C(=O)C(c2ccccc2)=C(c2ccccc2)C1c1ccccc1` (centres undefined), the outcome was inactive. Turning to `C/C(CN1C(=O)c2ccccc2C1=O)=N\NS(=O)(=O)c1ccc(Cl)cc1`, the EC50 was greater than 457 µM and the IC50 was greater than 457 µM. Turning to `Cc1cccc(-c2nnc3s/c(=C\c4ccc5c(c4)OCO5)c(=O)n23)c1`, the EC50 was greater than 27.5 µM and the IC50 was greater than 27.5 µM. Regarding `COC(=O)/C(=C/c1ccc(OC)cc1)C(C(=O)O)=C1CCCC1`, the EC50 is greater than 158 µM.

Turning to `CC1(C)OC(COCCOCCCCCO)C(COCCOCCCCCO)O1` (centres undefined), the result was inactive. Regarding `CCc1nnc2sc(=S)[nH]n12`, the outcome was inactive.

Take `CC1(C)CC(=O)C2C(C1)Nc1ccccc1NC2c1ccccc1[N+](=O)[O-]` (centres undefined): the EC50 is greater than 61.7 µM and the IC50 was greater than 61.7 µM. Consider `Nc1nc2c(c(=O)[nH]1)N1CN(c3ccc(C(=O)NC(CCC(=O)O)C(=O)O)cc3)CCC1CN2` (centres undefined), for which the EC50 was greater than 347 µM and the IC50 stood at 60.3 µM. Take `CCCCCCCCCO/N=C\c1c2c(O)c3c(O)c(C)c4c(c3c1O)C(=O)C(C)(O/C=C\C(OC)C(C)C(OC(C)=O)C(C)C(O)C(C)C(O)C(C)/C=C\C=C(\C)C(=O)N2)O4` (centres undefined): the EC50 was greater than 200 µM and the IC50 was determined as 3.16 µM.

As for `CCC/C=C(/Br)[Si](C)(C)C`, the EC50 was greater than 427 µM and the IC50 worked out at 372 µM. `NC(=S)N/N=C/C(O[C@@H](/C=N/NC(N)=S)CO)n1cnc2c(N)ncnc21` (some centres undefined): the EC50 is greater than 437 µM and the IC50 is 89.1 µM.

As to `Cc1ccc(C(N)=O)cc1N=NN(C)C`, the EC50 is greater than 457 µM and the IC50 was determined as 269 µM. Consider `COc1cccc2c1OC1c3ccccc3OCC1C2` (centres undefined), for which the EC50 was greater than 200 µM and the IC50 came out at 97.7 µM. With `C[N+]1(CCCl)CCc2cc([N+](=O)[O-])ccc2C1` (centres undefined), the EC50 was greater than 200 µM and the IC50 was greater than 200 µM. Turning to `C=CCN1C(=O)CS/C1=N\NC(=O)c1c(C)nc2sccn12`, the EC50 is greater than 741 µM and the IC50 was 240 µM. Regarding `CC1=NN(C(=O)c2ccccc2O)C(=O)/C1=C/c1ccc([N+](=O)[O-])cc1`, the EC50 is greater than 53.7 µM and the IC50 was found to be 0.0912 µM. For `COC1OC(C(C)Br)C2OC(C)(C)OC12` (centres undefined) the same measures were greater than 200 µM and greater than 200 µM. Take `O=C(/C=C/c1cc(O)c(O)c(O)c1)OCCc1ccccc1`: the EC50 is greater than 50.1 µM and the IC50 was 15.5 µM. On to `Cc1cc(N(CCC#N)CCC#N)ccc1/C=C(\NC(=O)/C=C/c1ccccc1)C(N)=O`, for which the outcome was inactive. On to `CCN(C(C)=N)c1ccccc1`, for which the EC50 was greater than 295 µM and the IC50 was found to be 67.6 µM. On to `O=C(O)CNC(=O)c1ccccc1SC(=O)CCCC[n+]1ccccc1`, for which the EC50 is greater than 200 µM and the IC50 was greater than 200 µM. In the case of `COc1ccccc1N1CCN(S(=O)(=O)c2ccc(Cl)cc2)C1=N`, the EC50 was greater than 200 µM and the IC50 came out at 77.6 µM. `Cc1cc2c(c(=O)o1)C1=S(SC(c3ccccc3)=C1)S2` (centres undefined): the EC50 was 75.9 µM and the IC50 was greater than 200 µM. The matching figures for `CC1N=C(SCc2ccc(Cl)cc2)N2C(C)N=C(SCc3ccc(Cl)cc3)N12` (centres undefined): greater than 21.9 µM and greater than 21.9 µM. For `Cn1c(SCc2ccc(F)cc2)nnc1C12CC3CC(CC(C3)C1)C2`, the EC50 is greater than 200 µM and the IC50 was determined as 105 µM. For `COc1ccc(C2SC(N)=Nc3c2c(C)nn3C(=O)c2ccncc2)cc1` (centres undefined) the same measures were greater than 200 µM and 110 µM. For the compound `O=C(O)C1C(C(=O)O)C2C3C4C1C1C2C3C41` (centres undefined), the result was inactive. Consider `CN(C)c1ccc(N=Nc2ccc(/C=C/c3ccnc4ccccc34)cc2)cc1`, for which the EC50 was greater than 19.1 µM and the IC50 is greater than 19.1 µM. Regarding `CNC(=O)Oc1ccc(C(=O)OCCO)cc1`, the EC50 was greater than 200 µM and the IC50 came out at 95.5 µM.

In the case of `C[n+]1cn(CC(=O)c2ccccc2)c(C(N)=O)c1N`, the EC50 is greater than 263 µM and the IC50 came out at 214 µM.

Consider `O=S(O)CCCCSSCc1ccccc1CSSCCCCS(=O)O`, for which the outcome was inactive. For `CCOC(=O)C(NC(=O)CC)(Nc1ccccc1F)C(F)(F)F` (centres undefined), the EC50 was greater than 200 µM and the IC50 was greater than 200 µM. In the case of `O=S(=O)(O)CC(O)CCl` (centres undefined), the EC50 was greater than 200 µM and the IC50 is greater than 200 µM. Regarding `CCN(CC)CC(C)(C)C(=O)/C=C/c1ccc(C)cc1`, the outcome was inactive. Turning to `C=C(C)C(=O)OC1CC2=CC(CC3(C)OC3C3OC(=O)C(=C)C13)OC2=O` (centres undefined), the EC50 is greater than 200 µM and the IC50 was found to be 2.4 µM. `CCN(CC)C(c1ccc(N(C)C)cc1)C(c1ccc(N(C)C)cc1)N(CC)CC` (centres undefined): the EC50 was greater than 158 µM and the IC50 was 42.7 µM. Turning to `O=C(Cc1ccccc1)NNc1nc(NNC(=O)c2ccncc2)nc(Nc2cccc(Cl)c2)n1`, the EC50 is greater than 200 µM and the IC50 is greater than 200 µM. As for `O=c1[nH]c2ncccc2c(=O)n1O`, the EC50 was greater than 200 µM and the IC50 stood at 34.7 µM.

On to `O=C1NNC=Nc2ccc(cc2)S(=O)(=O)c2ccc(cc2)N=CNNC1=O`, for which the EC50 was greater than 224 µM and the IC50 turned out to be 162 µM. The matching figures for `C/C1=C\C(=O)OC2CC(CCC(C)/C=C/CC1)OC(O)(C1CSC(=O)N1)C2` (centres undefined): greater than 129 µM and 3.98 µM.

As for `Cc1cccc2c1C(=O)OC2(c1cccc2ccccc12)c1cccc2ccccc12`, the outcome was inactive. Consider `S=C(NCCc1ccccn1)N/N=C(\c1ccccc1)c1ccccn1`, for which the EC50 is greater than 0.2 µM and the IC50 worked out at 0.0676 µM.

For the compound `Oc1ccccc1C1SC(c2ccccc2O)SC(c2ccccc2O)S1` (centres undefined), the EC50 is greater than 200 µM and the IC50 was 11.5 µM. On to `COc1cccc2c1OC(=O)NC2O` (centres undefined), for which the outcome was inactive.

Turning to `Cc1ccc(-c2n[nH]c(=O)n2N)cc1`, the EC50 was greater than 200 µM and the IC50 is greater than 200 µM. `CC(=O)OC1CC[C@@]2(C)C(C1)CC(OC(C)=O)[C@@H]1C2CC(OC(C)=O)[C@]2(C)C(C(C)CC=C(c3ccc(Cl)cc3)c3ccc(Cl)cc3)CCC12` (some centres undefined): the EC50 was greater than 200 µM and the IC50 was found to be 57.5 µM.

Regarding `Cc1cc(N=Nc2ccccc2)ccc1NCS(=O)(=O)O`, the EC50 is greater than 200 µM and the IC50 was 117 µM. As for `O=c1/c(=C/c2ccc3c(c2)OCO3)sc2nnc(-c3ccco3)n12`, the EC50 is greater than 55 µM and the IC50 is greater than 55 µM. `COc1ccc(C2C3=C(COC3=O)OC(C)(C)Oc3cc4c(cc32)OCO4)cc1` (centres undefined): the EC50 is greater than 200 µM and the half-maximal inhibitory concentration (IC50) came out at 13.8 µM. Consider `O=C1c2ccccc2C(=O)N1/N=C1/SC(=Nc2ccccc2)C(=Nc2ccccc2)N1c1ccccc1`, for which the outcome was inactive. On to `Cn1c(=O)c2c(nc(N)n2C2OC(CO)C(O)C2O)n(C)c1=O` (centres undefined), for which the EC50 was greater than 200 µM and the IC50 was greater than 200 µM.

In the case of `Cc1sc(N)c(S(=O)(=O)c2ccccc2)c1C`, the EC50 is 166 µM and the IC50 is 195 µM.

`CN1C(=O)c2cccc3cc([N+](=O)[O-])cc(c23)C1=O`: the EC50 was greater than 53.7 µM and the IC50 was 10.2 µM. In the case of `c1ccc2c(c1)SCCCSCCCS2`, the EC50 was greater than 28.2 µM and the half-inhibitory concentration (IC50) is greater than 28.2 µM. Turning to `COc1ccc2c(c1OC)C(=O)N1C2=Cc2c(cc3c(c2OC)OCO3)CC1N(C)C` (centres undefined), the EC50 is greater than 200 µM and the IC50 was found to be 26.9 µM.

`Cc1cc2c(c(C=Nc3ccc([N+](=O)[O-])cc3)c1)OC1(C=C2)Oc2ccccc2C(=O)N1C` (centres undefined): the EC50 is greater than 200 µM and the IC50 was 22.9 µM. With `COc1ccc(CCn2nccc2C)cc1`, the EC50 is greater than 200 µM and the IC50 is greater than 200 µM. With `COC(=O)C1C(c2ccccc2)=N[C@@H](c2ccccc2)[C@H]1C(=O)OC` (some centres undefined), the EC50 is greater than 11.2 µM and the IC50 was greater than 11.2 µM. As for `CC(=O)OC12CC(C(F)(F)F)(C(F)(F)F)OC1(OC(C)=O)CC(C(F)(F)F)(C(F)(F)F)O2` (centres undefined), the result was inactive. With `COC(=O)C12C3C4C1C1C2C3C41C(=O)NC(C)(C)CC(=O)O` (centres undefined), the EC50 was greater than 200 µM and the IC50 is greater than 200 µM. For `CC1OC=CC(=O)C1O` (centres undefined), the outcome was inactive. Turning to `O=C(Cc1ccccc1)NN1C(=O)C(Cl)C1c1ccc([N+](=O)[O-])cc1` (centres undefined), the EC50 was greater than 20 µM and the IC50 is greater than 20 µM. Consider `O=C(CC1(O)C(=O)Nc2ccc(Br)cc21)c1ccc(Cl)cc1Cl` (centres undefined), for which the EC50 is greater than 162 µM and the concentration for half-maximal inhibition (IC50) worked out at 95.5 µM. Turning to `Nc1nsc2nc3ccccc3cc12`, the result was inactive. `CCN(CCC#N)C(=O)Nc1ccccc1`: the EC50 is greater than 200 µM and the IC50 was greater than 200 µM.

The record behind these values is PubChem BioAssay AID179 (DTP/NCI, 2004).
